From paper PMC8286840, “Identifying SARS-CoV-2 antiviral compounds by screening for small molecule inhibitors of Nsp3 papain-like protease” (Biochemical Journal, 2021)
Counter-ions that a name gives are not always drawn. Like-named read-outs stand apart in the source and are kept apart here.

Tests used:
[1] = molecular target: T1, SARS-CoV-2 PLpro (nsp3 1564–1878) (Severe acute respiratory syndrome coronavirus 2, UniProt P0DTD1); assay: biochemical; set-up: FRET-quenched peptide (Pro3) cleavage by PLpro, 10 min pre-incubation, slope over 20 min, normalised to no-compound control; details: high concentration screen, read-out: % of control remaining
[2] = molecular target: T1, SARS-CoV-2 PLpro (nsp3 1564–1878); assay: biochemical; set-up: FRET-quenched peptide (Pro3) cleavage by PLpro, 10 min pre-incubation, slope over 20 min, normalised to no-compound control; details: low concentration screen, read-out: % of control remaining

## CC#C[C@]1(O)CC[C@H]2[C@@H]3CCC4=CC(=O)CCC4=C3[C@@H](c3ccc(N(C)C)cc3)C[C@@]21C [Mifepristone]
[1]; Well no.=795
  remaining activity at 3.75 µM: 96.3%
[1]; Well no.=2206
  remaining activity at 3.75 µM: 97.2%
[1]; Well no.=6285
  remaining activity at 3.75 µM: 99.7%
[2]; Well no.=795
  remaining activity at 1.25 µM: 103%
[2]; Well no.=2206
  remaining activity at 1.25 µM: 93.5%
[2]; Well no.=6285
  remaining activity at 1.25 µM: 97.9%

## COc1ccc(N2C(=O)CSC2c2cccc(Br)c2)c(OC)c1 (stereo not drawn) [2-(3-bromophenyl)-3-(2,4-dimethoxyphenyl)-1,3-thiazolidin-4-one]
[1]; Well no.=6016
  remaining activity at 3.75 µM: 98.8%
[2]; Well no.=6016
  remaining activity at 1.25 µM: 101%

## CCOC(=O)[C@H](Cc1ccc([N+](=O)[O-])cc1)NC(=O)c1ccccc1 [SB297006]
[1]; Well no.=8132
  remaining activity at 3.75 µM: 97.6%
[1]; Well no.=8211
  remaining activity at 3.75 µM: 102%
[2]; Well no.=8132
  remaining activity at 1.25 µM: 103%

## O=C(Nc1ccc(CN2CCOCC2)cc1)c1ccc(-c2cccc(Cl)c2)o1 [CID 2011756]
[1]; Well no.=6582
  remaining activity at 3.75 µM: 101%
[2]; Well no.=6582
  remaining activity at 1.25 µM: 97.3%

## CCCCC/C=C\C=C\[C@H](CCCCCCCC(=O)O)OO [9(S)-HPODE]
[1]; Well no.=4386
  remaining activity at 3.75 µM: 98%
[2]; Well no.=4386
  remaining activity at 1.25 µM: 97.7%

## CCCCCCCCCCC/C=C\C/C=C\CCCC(=O)O [5(Z), 8(Z)-Eicosadienoic acid]
[1]; Well no.=4410
  remaining activity at 3.75 µM: 92.4%
[2]; Well no.=4410
  remaining activity at 1.25 µM: 93.6%

## CCCC(=O)Nc1ccc(OCC(O)CNC(C)C)c(C(C)=O)c1 (stereo not drawn) [Acebutolol (hydrochloride)]
[1]; Well no.=6747
  remaining activity at 3.75 µM: 97.2%
[2]; Well no.=6747
  remaining activity at 1.25 µM: 101%

## C=C1C(=O)[C@]23[C@H](CC[C@@H]1[C@@H]2O)[C@]12CO[C@@]3(O)[C@H](O)[C@H]1C(C)(C)CC[C@@H]2O [Rubescensin A]
[1]; Well no.=3707
  remaining activity at 3.75 µM: 93.6%
[2]; Well no.=3707
  remaining activity at 1.25 µM: 95.2%

## Nc1nc(CC(=O)Nc2ccc(CCNC[C@H](O)c3ccccc3)cc2)cs1 [Mirabegron]
[1]; Well no.=6273
  remaining activity at 3.75 µM: 116%
[2]; Well no.=6273
  remaining activity at 1.25 µM: 107%

## COc1cc2c(Nc3ccc(NC(=O)c4ccccc4)cc3)ncnc2cc1OCCCN1CCOCC1 [ZM 447439 - N-[4-[[6-Methoxy-7-[3-(4-morpholinyl)propoxy]-4-quinazolinyl]amino]phenyl]benzamide]
[1]; Well no.=2534
  remaining activity at 3.75 µM: 96.9%
[2]; Well no.=2534
  remaining activity at 1.25 µM: 97.3%

## CC(C)C[C@H]1C(=O)O[C@H](Cc2ccccc2)C(=O)N(C)[C@@H](CC(C)C)C(=O)O[C@H](C)C(=O)N(C)[C@@H](CC(C)C)C(=O)O[C@H](Cc2ccccc2)C(=O)N(C)[C@@H](CC(C)C)C(=O)O[C@H](C)C(=O)N1C [PF 1022A]
[1]; Well no.=7942
  remaining activity at 3.75 µM: 114%
[2]; Well no.=7942
  remaining activity at 1.25 µM: 101%

## CC1(C)CCC=[N+]1[O-] [5,5-Dimethyl-1-pyrroline-N-oxide]
[1]; Well no.=501
  remaining activity at 3.75 µM: 97.1%
[2]; Well no.=501
  remaining activity at 1.25 µM: 97%

## CC(C)[C@@]1(NC(=O)[C@@H]2C[C@@H]3c4cccc5[nH]cc(c45)C[C@H]3N(C)C2)O[C@@]2(O)[C@@H]3CCCN3C(=O)[C@H](Cc3ccccc3)N2C1=O [Dihydroergocristine methanesulfonate]
[1]; Well no.=404
  remaining activity at 3.75 µM: 101%
[2]; Well no.=404
  remaining activity at 1.25 µM: 102%

## Cc1c(C(=O)NN2CCCCC2)nn(-c2ccc(Cl)cc2Cl)c1-c1ccc(Cl)cc1 [Rimonabant (Hydrochloride)]
[1]; Well no.=8011
  remaining activity at 3.75 µM: 90.1%
[2]; Well no.=8011
  remaining activity at 1.25 µM: 99.6%

## CC(=O)O[C@H]1[C@H]2[C@@H](OC(=O)Cc3ccccc3)[C@@H](C)C[C@]2(OC(C)=O)C(=O)/C(C)=C/[C@@H]2[C@H](CC[C@@]13CO3)C2(C)C [Euphorbiasteroid]
[1]; Well no.=3605
  remaining activity at 3.75 µM: 109%
[2]; Well no.=3605
  remaining activity at 1.25 µM: 103%

## c1ccc2c(N3CCNCC3)cccc2c1 [1-(1-Naphthyl)piperazine hydrochloride]
[1]; Well no.=1467
  remaining activity at 3.75 µM: 99.2%
[2]; Well no.=1467
  remaining activity at 1.25 µM: 99.5%

## O=S1(=O)N(CCN2CC=C(c3c[nH]c4cc(F)ccc34)CC2)c2cccc3c2N1CCC3 [LY-367,265]
[1]; Well no.=785
  remaining activity at 3.75 µM: 103%
[2]; Well no.=785
  remaining activity at 1.25 µM: 100%

## COc1cc2ncnc(Oc3cccc(NC(=O)Nc4cc(C(C)(C)C(F)(F)F)on4)c3)c2cc1OC [CEP-32496]
[1]; Well no.=5362
  remaining activity at 3.75 µM: 96.8%
[2]; Well no.=5362
  remaining activity at 1.25 µM: 100%

## CCN(CC)Cc1ccc(C(=O)N(CCc2ccccc2OC)[C@@H]2CCNC2)cc1 [4-[(diethylamino)methyl]-N-[2-(2-methoxyphenyl)ethyl]-N-[(3R)-3-pyrrolidinyl]benzamide dihydrochloride]
[1]; Well no.=5467
  remaining activity at 3.75 µM: 109%
[2]; Well no.=5467
  remaining activity at 1.25 µM: 107%

## COc1cc2c(cc1O)C[C@H]1c3c(cc(O)c(OC)c3-2)CCN1C [Boldine]
[1]; Well no.=3166
  remaining activity at 3.75 µM: 101%
[2]; Well no.=3166
  remaining activity at 1.25 µM: 102%

## CN1CCC(=C2c3ccccc3CCc3cccnc32)CC1 [Azatadine dimaleate]
[1]; Well no.=5036
  remaining activity at 3.75 µM: 102%
[2]; Well no.=5036
  remaining activity at 1.25 µM: 99%

## COc1cccc([C@@]2(O)CCCC[C@@H]2CN(C)C)c1 [Tramadol]
[1]; Well no.=2002
  remaining activity at 3.75 µM: 104%
[2]; Well no.=2002
  remaining activity at 1.25 µM: 104%

## CN(C(=O)c1ccc(F)cc1C(F)(F)F)C1CCN(c2nnc(-c3ccnn3C)c3ccccc23)CC1 [LY2940680]
[1]; Well no.=4890
  remaining activity at 3.75 µM: 82.4%
[2]; Well no.=4890
  remaining activity at 1.25 µM: 88.9%

## O=C(NC(NC(=S)Nc1ccc(F)c([N+](=O)[O-])c1)C(Cl)(Cl)Cl)C(c1ccccc1)c1ccccc1 (stereo not drawn) [ATM/ATR Kinase Inhibitor]
[1]; Well no.=2312
  remaining activity at 3.75 µM: 98.3%
[2]; Well no.=2312
  remaining activity at 1.25 µM: 98.2%

## COc1ccccc1OCC(O)CO (stereo not drawn) [Guaifenesin]
[1]; Well no.=2180
  remaining activity at 3.75 µM: 100%
[2]; Well no.=2180
  remaining activity at 1.25 µM: 97.5%

## C[N+]1(C)CCC[C@H]1C(=O)O
[1]; Well no.=3118
  remaining activity at 3.75 µM: 105%
[2]; Well no.=3118
  remaining activity at 1.25 µM: 107%

## COc1ccc2c3c1O[C@H]1C(=O)CC[C@@]4(O)C(C2)N(CC2CC2)CCC314 (single isomer, unassigned; (-)) [(-)-3-Methoxynaltrexone hydrochloride]
[1]; Well no.=947
  remaining activity at 3.75 µM: 97%
[2]; Well no.=947
  remaining activity at 1.25 µM: 98.1%

## Clc1cccc(Cl)c1NC1=NCCN1 [Clonidine.HCl]
[1]; Well no.=1691
  remaining activity at 3.75 µM: 94.2%
[2]; Well no.=1691
  remaining activity at 1.25 µM: 96%

## Cc1ccc(O)c(N=Nc2c(O)cc(S(=O)(=O)O)c3ccccc23)c1 [Calmagite]
[1]; Well no.=8168
  remaining activity at 3.75 µM: 82.2%
[2]; Well no.=8168
  remaining activity at 1.25 µM: 96.3%

## CN1Cc2c(N)cccc2C(c2ccccc2)C1 (stereo not drawn) [Nomifensine (maleate)]
[1]; Well no.=8395
  remaining activity at 3.75 µM: 95.9%
[2]; Well no.=8395
  remaining activity at 1.25 µM: 97.9%

## CC1=NN=C(c2ccc(N)cc2)c2cc3c(cc2C1)OCO3 [GYKI 52466 hydrochloride]
[1]; Well no.=748
  remaining activity at 3.75 µM: 92.5%
[2]; Well no.=748
  remaining activity at 1.25 µM: 92.9%

## Clc1ccc(C(Cn2ccnc2)OCc2csc3c(Cl)cccc23)c(Cl)c1 (stereo not drawn) [Sertaconazole nitrate]
[1]; Well no.=5411
  remaining activity at 3.75 µM: 93%
[2]; Well no.=5411
  remaining activity at 1.25 µM: 89.7%
